Assay results published in ChEMBL document CHEMBL4118111, “Discovery and optimization of piperazine-1-thiourea-based human phosphoglycerate dehydrogenase inhibitors” (Bioorg Med Chem, 2018).
pIC50: −log10 of the molar value.

How the values were obtained:
[1] = target: T1, D-3-phosphoglycerate dehydrogenase (Homo sapiens) (UniProt O43175); experiment: Inhibition of N-terminal His6-tagged human liver PHGDH expressed in Escherichia coli Rosetta (DE3)pLysS at 57 uM using 3-phosphoglycerate as substrate after 20 mins in presence of NAD+ by resazurin fluorescence based PSAT1/diaphorase/PSPH coupled enzyme assay
T1 sequence (whole entry): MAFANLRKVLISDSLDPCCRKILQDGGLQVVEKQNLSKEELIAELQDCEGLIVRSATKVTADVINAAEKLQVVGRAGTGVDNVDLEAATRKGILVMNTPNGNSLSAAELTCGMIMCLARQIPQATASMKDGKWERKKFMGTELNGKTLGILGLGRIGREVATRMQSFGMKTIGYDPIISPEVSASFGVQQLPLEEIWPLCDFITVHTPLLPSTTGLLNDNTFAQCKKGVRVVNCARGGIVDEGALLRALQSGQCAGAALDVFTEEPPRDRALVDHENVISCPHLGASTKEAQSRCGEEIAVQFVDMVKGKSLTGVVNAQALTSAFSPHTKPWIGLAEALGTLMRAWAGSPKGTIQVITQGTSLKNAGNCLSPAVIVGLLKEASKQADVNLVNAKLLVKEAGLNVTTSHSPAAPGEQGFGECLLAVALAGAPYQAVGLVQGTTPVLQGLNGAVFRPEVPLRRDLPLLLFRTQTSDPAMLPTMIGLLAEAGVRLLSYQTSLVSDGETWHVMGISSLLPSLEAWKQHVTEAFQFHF

[2] = target: T2, D-3-phosphoglycerate dehydrogenase (Homo sapiens, UniProt O43175)
T2 sequence (O43175 whole entry): T1 sequence (whole entry)

[3] = Half life in rat liver microsomes at 1 uM at 37 degC in presence of NADPH regeneration system incubated for 15 mins by LC-MS/MS analysis; format: ADME, microsome
[4] = Aqueous solubility of the compound; format: physicochemical

| Compound | inhibition [1] [%] | pIC50 [2] | t1/2 [3] [min] | Imax [1] [%] | solubility [4] [µM] |
| --- | --- | --- | --- | --- | --- |
| Cc1cc(C)nc(NC(=S)N2CCN(C(C)c3ccc(C(F)(F)F)cc3)CC2)c1 (centres undefined) | 90 | 5.10 | – | – | – |
| COc1ccc(N2CCN(C(=S)Nc3cc(C)cc(C)n3)CC2)cc1 | 99 | 4.80 | – | – | – |
| Cc1cc(C)nc(NC(=S)N2CCN(Cc3ccc(C(F)(F)F)cc3)[C@H](C)C2)c1 | 94 | 4.92 | – | – | – |
| Cc1cc(C)nc(NC(=S)N2CCCN(Cc3ccc(C(F)(F)F)cc3)CC2)c1 | 82 | 5.14 | – | – | – |
| Cc1cc(C)nc(NC(=S)N2CCCC(NC(=O)c3ccc(C(F)(F)F)cc3)C2)c1 (centres undefined) | 88 | 5.06 | – | – | – |
| COc1cccc(N2CCN(C(=S)Nc3cc(C)cc(C)n3)CC2)c1 | 101 | 4.85 | – | – | – |
| FC(F)(F)c1cccc(N2CCN(C(=S)Nc3ccccn3)CC2)c1 | 93 | 5.17 | 16 | – | – |
| Cc1ccnc(NC(=S)N2CCN(c3cccc(C(F)(F)F)c3)CC2)n1 | 111 | 4.43 | – | – | – |
| Cc1cc(C)nc(NC(=S)N2CCN(C(=O)c3cccc(C(F)(F)F)c3)CC2)c1 | 101 | 4.66 | – | – | – |
| COc1ccccc1N1CCN(C(=S)Nc2cc(C)cc(C)n2)CC1 | 109 | 4.62 | – | – | – |
| Cc1ccnc(C(=S)N2CCN(c3cccc(C(F)(F)F)c3)CC2)c1 | – | – | – | 9 | – |
| FC(F)(F)c1cccc(N2CCN(C(=S)Nc3ccncc3)CC2)c1 | 55 | 4.85 | – | – | – |
| Cc1cc(C)nc(NC(=S)N2CCC(Nc3ccc(C(F)(F)F)cc3)CC2)c1 | 97 | 5.11 | – | – | – |
| Cc1cc(C)nc(NC(=S)N(C)CCN(C)Cc2ccc(C(F)(F)F)cc2)c1 | 84 | 5.14 | – | – | – |
| Cc1cc(C)nc(NC(=S)N2CCCC(NC(=O)c3cccc(C(F)(F)F)c3)C2)c1 (centres undefined) | 91 | 5.00 | – | – | – |
| Cc1cc(C)nc(NC(=S)N2CCN(c3cccc(C(F)(F)F)c3)CC2)c1 | 92 | 5.20 | > 30 | – | – |
| Cc1cc(C)nc(NC(=S)N2CCCC(Nc3ccc(C(F)(F)F)cc3)C2)c1 (centres undefined) | 85 | 5.24 | – | – | – |
| Cc1cc(C)nc(NC(=S)NCCN(C)Cc2ccc(C(F)(F)F)cc2)c1 | 66 | 4.68 | – | – | – |
| Cc1cccc(CN2CCN(C(=S)Nc3cc(C)cc(C)n3)CC2)c1 | 92 | 4.70 | – | – | – |

| Compound | inhibition [1] [%] | pIC50 [2] | t1/2 [3] [min] | Imax [1] [%] | solubility [4] [µM] |
| --- | --- | --- | --- | --- | --- |
| Cc1cc(C)nc(NC(=S)N2CCN(Cc3ccccc3)CC2)c1 | 78 | 4.40 | – | – | – |
| Cc1cc(C)nc(NC(=S)N2CCN(Cc3ccc(C(F)(F)F)cc3)CC2)c1 | 96 | – | – | – | – |
| FC(F)(F)c1cccc(N2CCN(C(=S)Nc3cc(C(F)(F)F)ccn3)CC2)c1 | 61 | 5.19 | – | – | – |
| COc1ccc(CN2CCN(C(=S)Nc3cc(C)cc(C)n3)CC2)cc1 | 87 | 4.59 | – | – | – |
| COc1cccc(CN2CCN(C(=S)Nc3cc(C)cc(C)n3)CC2)c1 | 94 | 4.52 | – | – | – |
| Cc1cc(C)nc(NC(=S)N2CCN(Cc3ccc(C(F)(F)F)cc3)C(c3ccccc3)C2)c1 (centres undefined) | 111 | 4.51 | – | – | – |
| Cc1ccnc(NC(=O)N2CCN(c3cccc(C(F)(F)F)c3)CC2)c1 | – | – | – | 16 | – |
| Cc1cccc(NC(=S)N2CCN(c3cccc(C(F)(F)F)c3)CC2)c1 | – | – | – | 20 | – |
| Cc1cc(C)nc(NC(=S)N2CCN(Cc3ccccc3Cl)CC2)c1 | 106 | 4.70 | – | – | – |
| Cc1cc(C)nc(NC(=S)N2CCN(Cc3ccccn3)CC2)c1 | 51 | 4.30 | – | – | – |
| Cc1cc(C)nc(NC(=S)N2CCN(Cc3ccncc3)CC2)c1 | 67 | 4.23 | – | – | – |
| Cc1cc(C)nc(NC(=S)N2CCN(Cc3ccc(F)cc3)CC2)c1 | 86 | 4.42 | – | – | – |
| Cc1cc(C)nc(NC(=S)N2CCN(Cc3ccc(C(F)(F)F)cc3)C(C(=O)O)C2)c1 (centres undefined) | 93 | 4.48 | – | – | – |
| Cc1cc(C)nc(NC(=S)N2CCN(c3ccc(C(F)(F)F)cn3)CC2)c1 | 96 | – | – | – | – |
| Cc1cc(C)nc(NC(=S)N2CCN(Cc3ccc(Br)cc3)CC2)c1 | 92 | 4.77 | – | – | – |
| Cc1ccnc(NC(=S)N2CCN(c3cccc(C(F)(F)F)c3)CC2)c1 | 92 | – | – | – | – |
| Cc1ccnc(NC(=N)N2CCN(c3cccc(C(F)(F)F)c3)CC2)c1 | – | – | – | 2 | – |
| Cc1cc(C)nc(NC(=S)N2CCN(c3ccncc3)CC2)c1 | – | – | – | 33 | > 48 |
